Measured values from PMC7280195, “Simple ammonium salts acting on sigma-1 receptors yield potential treatments for cancer and depression” (Scientific Reports, 2020).
Counter-ions that a name gives are not always drawn. Like-named read-outs stand apart in the source and are kept apart here.

Assays:
sigma-2 receptor = molecular target: T1, sigma-2 receptor (Homo sapiens, UniProt Q5BJF2); assay: biochemical; format: binding
T1 construct: MCF7 cells were suspended in sigma-2 assay buffer (50 mM Tris-HCl; pH 8.0), sonicated (1 minute) and the homogenate was centrifuged; endogenous in cells; host or cells: MCF7 cells (gift), membrane pellet

mice [1] = assay: Forced-swim test; format: in vivo
[2] = molecular target: muscarinic acetylcholine receptor; format: binding, rat; conditions: for mACh R affinity pKi ± SEM (n) / Ki: rat brain membranes; for mACh R affinity pKi ± SEM (n): 1.35 nM [3H] QNB; for Ki: read-out: mACh R affinity Ki; for mACh R Ki/σ-1 R Ki: ratio between Ki values
mice [3] = assay: Tail suspension test; format: in vivo
[4] = molecular target: human noradrenaline transporter (Homo sapiens, UniProt P23975); assay: Monoamine transporter uptake assay, 293 cells expressing noradrenaline transporter; format: cell-based; conditions: for IC50: read-out: IC50 noradrenaline transport
[5] = molecular target: T2, human dopamine transporter (Homo sapiens, UniProt Q01959); assay: Monoamine transporter uptake assay, 293 cells expressing dopamine transporter; format: cell-based; conditions: for IC50: read-out: IC50 dopamine transport
T2 construct: expressed in transfected cells

mice [6] = assay: Locomotor activity (Actophotometer); format: in vivo; conditions: control 140 ± 15
Procedure: All drugs were dissolved in normal saline and different doses were administered intraperitoneally in a fixed volume of 1 ml.100 g^−1 body weight 30 minutes before the animals were subjected to the test.
Locomotor activity (ambulations) was measured by using a computerised Actophotometer (IMCORP, India). […] Mice were allowed to acclimatise to the observation chamber for a period of 2 minutes. The activity was monitored continuously for a period of 15 minutes. Locomotion was expressed in terms of total photobeam counts per 15 minutes per animal and compared to vehicle control groups as previously described.

human 5-HT transporter = human 5-HT transporter (Homo sapiens, UniProt P31645); format: cell-based; conditions: for IC50: read-out: IC50 serotonin reuptake
MDA-MB-468 cells [7] = assay: cells; format: cell-based
MCF7 cells = format: cell-based
MDA-MB-468 cells [8] = assay: Fura-2 cytoplasmic calcium measurement in MDA-MB-468 cells; format: cell-based; conditions: data not shown
MAC13 cells = assay: MTS assay in MAC13 cells in vitro; format: cell-based, mouse; conditions: mean ± SEM, n = 6
Procedure: Cells (10,000 cells per well, 100 μl) were seeded into 96-well plates and allowed to adhere overnight. The following day drugs were added and cells were permitted to proliferate for 24 hours before the addition of 10 μl CellTiter 96 AQueous Non-Radioactive Cell Proliferation Assay reagent (Promega, Southampton, UK) as previously described. Absorbance (490 nm) readings were taken at 0, 1, 2 and 3 hours to monitor formazan formation and rates of metabolic activity were compared.

dopamine transporter = tested on: dopamine transporter; set-up: method as in PMID 10525084; conditions: read-out: dopamine transport inhibition, previously published; cited from earlier work
muscarinic receptor = molecular target: muscarinic receptor; set-up: method as in PMID 11834244; conditions: cited from earlier work
[9] = dipentylammonium 5 mg.kg−1 plus BD1047 4 mg.kg−1

T1 sequence (Q5BJF2 whole entry): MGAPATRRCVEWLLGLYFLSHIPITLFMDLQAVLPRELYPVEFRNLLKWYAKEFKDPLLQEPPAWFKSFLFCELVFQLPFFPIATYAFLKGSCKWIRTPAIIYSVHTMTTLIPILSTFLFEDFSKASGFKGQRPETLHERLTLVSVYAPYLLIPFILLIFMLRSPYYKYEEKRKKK
human 5-HT transporter, sequence (P31645 whole entry): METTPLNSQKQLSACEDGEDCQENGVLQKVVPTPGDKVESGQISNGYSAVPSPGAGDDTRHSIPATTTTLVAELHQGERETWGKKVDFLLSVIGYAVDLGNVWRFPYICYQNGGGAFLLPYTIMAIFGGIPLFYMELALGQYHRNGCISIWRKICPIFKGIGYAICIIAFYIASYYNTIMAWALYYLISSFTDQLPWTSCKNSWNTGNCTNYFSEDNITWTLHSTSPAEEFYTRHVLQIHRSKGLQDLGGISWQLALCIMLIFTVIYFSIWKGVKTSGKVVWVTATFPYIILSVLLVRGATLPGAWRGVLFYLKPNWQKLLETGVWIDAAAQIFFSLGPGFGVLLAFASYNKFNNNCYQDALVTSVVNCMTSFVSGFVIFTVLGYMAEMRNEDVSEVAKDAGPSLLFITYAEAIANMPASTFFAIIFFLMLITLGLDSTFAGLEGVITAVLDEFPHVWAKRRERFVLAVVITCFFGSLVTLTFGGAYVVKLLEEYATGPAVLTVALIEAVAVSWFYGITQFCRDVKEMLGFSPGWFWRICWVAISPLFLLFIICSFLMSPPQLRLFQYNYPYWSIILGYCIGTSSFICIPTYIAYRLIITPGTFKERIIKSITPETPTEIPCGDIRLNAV
T2 sequence (Q01959 whole entry): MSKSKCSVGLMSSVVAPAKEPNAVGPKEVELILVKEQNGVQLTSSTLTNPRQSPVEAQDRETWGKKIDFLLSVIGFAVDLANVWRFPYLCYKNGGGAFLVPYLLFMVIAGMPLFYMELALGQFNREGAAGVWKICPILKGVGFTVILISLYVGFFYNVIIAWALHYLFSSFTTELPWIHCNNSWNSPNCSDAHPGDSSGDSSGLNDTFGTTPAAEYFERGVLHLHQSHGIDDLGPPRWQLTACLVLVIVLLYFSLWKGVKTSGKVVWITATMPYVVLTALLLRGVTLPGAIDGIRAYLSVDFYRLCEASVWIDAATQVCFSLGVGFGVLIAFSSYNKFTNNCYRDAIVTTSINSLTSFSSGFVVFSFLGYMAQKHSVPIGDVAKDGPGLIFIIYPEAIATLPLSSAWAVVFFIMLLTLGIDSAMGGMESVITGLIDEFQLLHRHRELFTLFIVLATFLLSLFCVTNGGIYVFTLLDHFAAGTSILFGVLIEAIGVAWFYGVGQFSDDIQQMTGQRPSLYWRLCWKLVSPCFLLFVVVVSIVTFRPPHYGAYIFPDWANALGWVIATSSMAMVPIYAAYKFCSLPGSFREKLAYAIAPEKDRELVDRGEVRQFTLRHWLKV
human noradrenaline transporter, sequence (P23975 whole entry): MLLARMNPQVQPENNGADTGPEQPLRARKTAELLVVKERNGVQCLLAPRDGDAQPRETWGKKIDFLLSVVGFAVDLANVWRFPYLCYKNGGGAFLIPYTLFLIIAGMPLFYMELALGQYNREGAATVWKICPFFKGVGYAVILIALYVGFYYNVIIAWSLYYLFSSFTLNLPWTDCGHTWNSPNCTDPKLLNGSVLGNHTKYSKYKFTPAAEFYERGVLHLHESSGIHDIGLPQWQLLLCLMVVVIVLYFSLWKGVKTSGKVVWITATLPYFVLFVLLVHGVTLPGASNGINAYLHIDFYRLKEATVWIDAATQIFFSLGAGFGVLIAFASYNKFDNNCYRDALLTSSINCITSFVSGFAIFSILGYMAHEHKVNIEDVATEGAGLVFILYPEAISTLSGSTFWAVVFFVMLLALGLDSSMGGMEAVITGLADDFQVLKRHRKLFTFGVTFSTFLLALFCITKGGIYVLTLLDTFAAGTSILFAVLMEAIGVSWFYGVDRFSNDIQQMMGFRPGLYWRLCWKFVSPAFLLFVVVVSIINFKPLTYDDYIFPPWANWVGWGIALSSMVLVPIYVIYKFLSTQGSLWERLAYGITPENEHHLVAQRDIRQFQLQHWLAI

CCC(C)NC(C)CC (centres unmarked) [Di-sec-butyl, di-sec-butylammonium]
σ-2 R affinity pKi ± SEM (n) (sigma-2 receptor): 5.2 ± 0.2 (3) | Ki (sigma-2 receptor; read-out: σ-2 R affinity Ki): 6.3 µM

CCCCCN(CCCCC)CCCCC [Tripentyl, tripentylammonium]
σ-2 R affinity pKi ± SEM (n) (sigma-2 receptor): 6.1 ± 0.1 (3) | Ki (sigma-2 receptor; read-out: σ-2 R affinity Ki): 0.78 µM | effect on immobility time, forced-swim test (mice [1]; doses up to 10 mg.kg−1): did not have any significant effect | mACh R affinity pKi ± SEM (n) [2]: 4.3 ± 0.4 (4) | Ki [2]: 47 µM | mACh R Ki/σ-1 R Ki [2]: 3130

CNC [Dimethyl]
σ-2 R affinity pKi ± SEM (n) (sigma-2 receptor): <3 (3)

CCCCCNCCCCC [Dipentyl, dipentylammonium]
σ-2 R affinity pKi ± SEM (n) (sigma-2 receptor): 6.9 ± 0.2 (3) | Ki (sigma-2 receptor; read-out: σ-2 R affinity Ki): 0.12 µM | time spent immobile, tail suspension test (mice [3]; 5 mg.kg−1, 6 minutes, control 235 ± 19): 116 ± 7 s | time spent immobile, tail suspension test (mice [3]; [9]): 182 ± 30 s | pIC50 noradrenaline transport [4]: 3.6 ± 0.1 | IC50 [4]: 200 µM | pIC50 dopamine transport [5]: 3.2 ± 0.2 | IC50 [5]: 600 µM | locomotion (mice [6]; 5 mg.kg−1 alone): 128 ± 19 events in 15 minutes | locomotion (mice [6]; [9]): 114 ± 14 events in 15 minutes | time spent immobile, forced-swim test (mice [1]; 5 mg.kg−1 i.p., 6 minutes, control 233 ± 10): 80 ± 13 s | time spent immobile, forced-swim test (mice [1]; [9]): 185 ± 5 s | mACh R affinity pKi ± SEM (n) [2]: 3.4 ± 0.2 (5) | Ki [2]: 380 µM | mACh R Ki/σ-1 R Ki [2]: 8840 | pIC50 serotonin reuptake (human 5-HT transporter): 3.0 ± 0.2 | IC50 (human 5-HT transporter): 1100 µM

CCCCCCCCN(CCCCCCCC)CCCCCCCC.Cl [Trioctyl]
σ-2 R affinity pKi ± SEM (n) (sigma-2 receptor): 3.74 ± 0.06 (3) | Ki (sigma-2 receptor; read-out: σ-2 R affinity Ki): 180 µM

CCCN [Propyl]
σ-2 R affinity pKi ± SEM (n) (sigma-2 receptor): <3 (3)

C1CCC(NC2CCCCC2)CC1 [Dicyclohexyl, dicyclohexylammonium]
Ki (sigma-2 receptor): 0.138 µM | IC50 (MDA-MB-468 cells [7]; Homo sapiens, MDA-MB-468, 24 h, read-out: pIC50 reduction of cell metabolism (converted)): 126 µM | effect on MCF7 cells in MTS assay (MCF7 cells; MCF7 cells (sigma-2 only)): without effect

CC(C)NC(C)C [Diisopropyl]
σ-2 R affinity pKi ± SEM (n) (sigma-2 receptor): 4.1 ± 0.1 (3) | Ki (sigma-2 receptor; read-out: σ-2 R affinity Ki): 71 µM

CCCC[N+](CCCC)(CCCC)CCCC [Tetrabutyl, tetrabutylammonium]
Ki (sigma-2 receptor): 60 µM

triisopentylammonium
higher affinity for sigma-2 receptors over sigma-1 receptors (sigma-2 receptor): 200 fold | σ-2 R affinity pKi ± SEM (n) (sigma-2 receptor): 6.40 ± 0.09 (3) | Ki (sigma-2 receptor; read-out: σ-2 R affinity Ki): 0.4 µM | concentration showing a calcium response (MDA-MB-468 cells [8]): ≥ 1 mM | pIC50 reduction in MAC13 cell metabolism (MAC13 cells): 4.4 ± 0.2 | IC50 [4]: 7800 µM | IC50 [5]: 1600 µM | pIC50 reduction of cell metabolism (MDA-MB-468 cells [7]): 2.96 ± 0.06 | pIC50 reduction of cell metabolism, non-targeting control (MDA-MB-468 cells [7]): 2.9 ± 0.2 | effect on MCF7 cells in MTS assay (MCF7 cells): without effect | mACh R affinity pKi ± SEM (n) [2]: 3.60 ± 0.11 (5) | Ki [2]: 251 µM | mACh R Ki/σ-1 R Ki [2]: 3.4 | MAC13 tumour growth compared to vehicle control (MAC13 tumours; 10 mg.kg−1 i.v. daily from day 12, P < 0.001): statistically significant reduction in tumour growth | tolerability in tumour-bearing mice (MAC13 tumours; 10 mg.kg−1 i.v. daily, grooming activity maintained): no negative signs | IC50 (human 5-HT transporter): 7800 µM

CCNCC.Cl [Diethyl]
σ-2 R affinity pKi ± SEM (n) (sigma-2 receptor): <3 (3)

CCCCNCCCC [Dibutyl]
σ-2 R affinity pKi ± SEM (n) (sigma-2 receptor): 5.64 ± 0.07 (3) | Ki (sigma-2 receptor; read-out: σ-2 R affinity Ki): 2.3 µM

CCN(CC)CC [Triethyl]
σ-2 R affinity pKi ± SEM (n) (sigma-2 receptor): 3.66 ± 0.04 (3) | Ki (sigma-2 receptor; read-out: σ-2 R affinity Ki): 220 µM

CCCCCCCCCCCCN(CCCCCCCCCCCC)CCCCCCCCCCCC [Tridodecyl]
σ-2 R affinity pKi ± SEM (n) (sigma-2 receptor): 4.1 ± 0.6 (3) | Ki (sigma-2 receptor; read-out: σ-2 R affinity Ki): 76 µM

C[C@@H]1CN(CCCn2c3ccccc3c3ccccc32)C[C@H](C)N1 [Rimcazole, 9-[3-(cis−3,5-dimethyl-1-piperizinyl)propyl]-9H-carbazole dihydrochloride, reference compound]
mACh R affinity pKi ± SEM (n) [2]: 4.49 ± 0.10 (7) | mACh R affinity pKi ± SEM (n) ([2]; listed as rimcazole): 4.5 ± 0.1 | Ki [2]: 32 µM

CCCCCCCCCCN [Decyl, decylammonium]
σ-2 R affinity pKi ± SEM (n) (sigma-2 receptor): 5.41 ± 0.07 (3) | Ki (sigma-2 receptor; read-out: σ-2 R affinity Ki): 3.9 µM

CC(C)=CCN1CC[C@]2(C)c3cc(O)ccc3C[C@H]1[C@H]2C [(+) pentazocine]
pKi muscarinic receptor (muscarinic receptor): 6.29 ± 0.06
